Source: patent publication US20230257396A1, “MACROCYCLES AND THEIR USE” (BLOSSOMHILL THERAPEUTICS, INC., priority 2020, published 2023)

How the values were obtained:
Assay in all cases: KINOMEscan kinase binding assay (Eurofins/DiscoveRx), % Ctrl
kinases [1] = biological target: T1, kinases (Homo sapiens, UniProt P10721, D816H)
T1 construct: purchased Eurofins/DiscoveRx; host or cells: E. coli BL21-derived host (T7 phage display) for most kinases; HEK-293 for the rest
Procedure, shortened: (§1)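 Read-out is qPCR of kinase eluted from ligand-coated streptavidin beads after 1 h room-temperature competition with test compound. Values are % Ctrl at the tested concentration, lower meaning tighter binding.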

kinases [2] = biological target: T2, kinases (Homo sapiens, UniProt P00533, DEL746-750)
T2 construct: purchased Eurofins/DiscoveRx; host or cells: E. coli BL21-derived host (T7 phage display) for most kinases; HEK-293 for the rest
Procedure, shortened: as §1

kinases [3] = biological target: T3, kinases (Homo sapiens, UniProt P00533, L858R/T790M)
T3 construct: purchased Eurofins/DiscoveRx; host or cells: E. coli BL21-derived host (T7 phage display) for most kinases; HEK-293 for the rest
Procedure, shortened: as §1

kinases [4] = biological target: T4, kinases (Homo sapiens, UniProt P17948)
T4 construct: purchased Eurofins/DiscoveRx; host or cells: E. coli BL21-derived host (T7 phage display) for most kinases; HEK-293 for the rest
T4 sequence (P17948 27-1338): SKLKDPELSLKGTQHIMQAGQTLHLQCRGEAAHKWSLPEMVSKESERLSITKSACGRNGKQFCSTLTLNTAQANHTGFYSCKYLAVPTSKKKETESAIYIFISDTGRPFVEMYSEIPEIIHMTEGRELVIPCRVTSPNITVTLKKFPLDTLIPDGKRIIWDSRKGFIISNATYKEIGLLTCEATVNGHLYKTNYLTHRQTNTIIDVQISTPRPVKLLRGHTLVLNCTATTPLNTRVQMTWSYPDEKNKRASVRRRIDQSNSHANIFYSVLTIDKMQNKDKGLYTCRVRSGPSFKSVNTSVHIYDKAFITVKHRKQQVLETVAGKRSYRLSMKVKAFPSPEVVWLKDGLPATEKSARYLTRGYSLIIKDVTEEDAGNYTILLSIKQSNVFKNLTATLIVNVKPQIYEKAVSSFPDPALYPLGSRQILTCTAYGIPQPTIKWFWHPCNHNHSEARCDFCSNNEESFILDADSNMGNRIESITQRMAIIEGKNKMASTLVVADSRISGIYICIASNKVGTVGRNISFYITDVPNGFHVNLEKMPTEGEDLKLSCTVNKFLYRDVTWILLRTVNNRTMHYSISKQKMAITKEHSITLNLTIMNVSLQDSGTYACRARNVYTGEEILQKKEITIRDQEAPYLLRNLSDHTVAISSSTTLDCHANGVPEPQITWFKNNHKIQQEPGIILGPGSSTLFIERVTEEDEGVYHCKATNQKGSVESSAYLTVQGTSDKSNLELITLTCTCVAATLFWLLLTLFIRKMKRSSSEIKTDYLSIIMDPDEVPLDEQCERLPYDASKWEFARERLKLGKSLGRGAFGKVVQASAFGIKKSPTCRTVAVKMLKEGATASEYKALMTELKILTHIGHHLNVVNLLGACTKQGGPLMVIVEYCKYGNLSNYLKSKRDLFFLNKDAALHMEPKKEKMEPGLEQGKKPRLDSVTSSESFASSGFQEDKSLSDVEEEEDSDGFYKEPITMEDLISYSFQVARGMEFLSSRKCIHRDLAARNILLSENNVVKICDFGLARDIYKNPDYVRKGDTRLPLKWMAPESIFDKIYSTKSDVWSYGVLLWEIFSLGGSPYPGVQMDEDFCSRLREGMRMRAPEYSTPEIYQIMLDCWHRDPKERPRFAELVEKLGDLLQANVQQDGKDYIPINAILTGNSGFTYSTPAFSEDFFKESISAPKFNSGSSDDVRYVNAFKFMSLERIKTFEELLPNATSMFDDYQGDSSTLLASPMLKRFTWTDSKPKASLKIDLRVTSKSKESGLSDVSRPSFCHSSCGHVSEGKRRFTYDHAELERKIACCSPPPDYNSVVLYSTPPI
Procedure, shortened: as §1

kinases [5] = biological target: T5, kinases (Homo sapiens, UniProt P00519, F317L)
T5 construct: purchased Eurofins/DiscoveRx; host or cells: E. coli BL21-derived host (T7 phage display) for most kinases; HEK-293 for the rest
T5 sequence (P00519 whole entry F317L): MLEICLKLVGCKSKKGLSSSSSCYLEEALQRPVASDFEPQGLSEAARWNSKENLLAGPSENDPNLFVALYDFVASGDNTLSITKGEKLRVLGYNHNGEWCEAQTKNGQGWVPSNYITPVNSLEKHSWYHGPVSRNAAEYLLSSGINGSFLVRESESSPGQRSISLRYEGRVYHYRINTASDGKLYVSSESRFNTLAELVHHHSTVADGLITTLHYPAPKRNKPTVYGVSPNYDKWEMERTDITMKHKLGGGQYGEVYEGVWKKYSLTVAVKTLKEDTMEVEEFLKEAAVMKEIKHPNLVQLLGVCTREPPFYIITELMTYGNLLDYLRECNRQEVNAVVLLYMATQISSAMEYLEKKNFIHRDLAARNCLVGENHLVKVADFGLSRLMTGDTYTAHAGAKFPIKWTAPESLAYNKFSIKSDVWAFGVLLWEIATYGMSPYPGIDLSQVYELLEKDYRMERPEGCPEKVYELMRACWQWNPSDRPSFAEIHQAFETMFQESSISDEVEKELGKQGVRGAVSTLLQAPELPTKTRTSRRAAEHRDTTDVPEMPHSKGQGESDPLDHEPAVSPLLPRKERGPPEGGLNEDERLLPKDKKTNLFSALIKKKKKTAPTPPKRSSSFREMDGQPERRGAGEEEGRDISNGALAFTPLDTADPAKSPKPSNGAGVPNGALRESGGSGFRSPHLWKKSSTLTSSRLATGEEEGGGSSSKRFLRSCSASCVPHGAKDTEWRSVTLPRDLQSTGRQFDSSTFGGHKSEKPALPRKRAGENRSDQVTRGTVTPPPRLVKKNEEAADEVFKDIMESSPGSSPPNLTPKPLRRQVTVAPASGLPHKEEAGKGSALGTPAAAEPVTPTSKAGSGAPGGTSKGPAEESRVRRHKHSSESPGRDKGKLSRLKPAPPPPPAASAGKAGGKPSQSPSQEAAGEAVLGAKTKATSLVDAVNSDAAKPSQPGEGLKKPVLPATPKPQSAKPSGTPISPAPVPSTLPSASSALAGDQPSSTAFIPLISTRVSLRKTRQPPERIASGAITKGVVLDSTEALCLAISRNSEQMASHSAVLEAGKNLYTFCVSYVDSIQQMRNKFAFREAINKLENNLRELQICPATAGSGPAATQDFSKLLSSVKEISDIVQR
Procedure, shortened: as §1

kinases [6] = biological target: T6, kinases (Homo sapiens, UniProt P10721, V559D)
T6 construct: purchased Eurofins/DiscoveRx; host or cells: E. coli BL21-derived host (T7 phage display) for most kinases; HEK-293 for the rest
T6 sequence (P10721 26-976 V559D): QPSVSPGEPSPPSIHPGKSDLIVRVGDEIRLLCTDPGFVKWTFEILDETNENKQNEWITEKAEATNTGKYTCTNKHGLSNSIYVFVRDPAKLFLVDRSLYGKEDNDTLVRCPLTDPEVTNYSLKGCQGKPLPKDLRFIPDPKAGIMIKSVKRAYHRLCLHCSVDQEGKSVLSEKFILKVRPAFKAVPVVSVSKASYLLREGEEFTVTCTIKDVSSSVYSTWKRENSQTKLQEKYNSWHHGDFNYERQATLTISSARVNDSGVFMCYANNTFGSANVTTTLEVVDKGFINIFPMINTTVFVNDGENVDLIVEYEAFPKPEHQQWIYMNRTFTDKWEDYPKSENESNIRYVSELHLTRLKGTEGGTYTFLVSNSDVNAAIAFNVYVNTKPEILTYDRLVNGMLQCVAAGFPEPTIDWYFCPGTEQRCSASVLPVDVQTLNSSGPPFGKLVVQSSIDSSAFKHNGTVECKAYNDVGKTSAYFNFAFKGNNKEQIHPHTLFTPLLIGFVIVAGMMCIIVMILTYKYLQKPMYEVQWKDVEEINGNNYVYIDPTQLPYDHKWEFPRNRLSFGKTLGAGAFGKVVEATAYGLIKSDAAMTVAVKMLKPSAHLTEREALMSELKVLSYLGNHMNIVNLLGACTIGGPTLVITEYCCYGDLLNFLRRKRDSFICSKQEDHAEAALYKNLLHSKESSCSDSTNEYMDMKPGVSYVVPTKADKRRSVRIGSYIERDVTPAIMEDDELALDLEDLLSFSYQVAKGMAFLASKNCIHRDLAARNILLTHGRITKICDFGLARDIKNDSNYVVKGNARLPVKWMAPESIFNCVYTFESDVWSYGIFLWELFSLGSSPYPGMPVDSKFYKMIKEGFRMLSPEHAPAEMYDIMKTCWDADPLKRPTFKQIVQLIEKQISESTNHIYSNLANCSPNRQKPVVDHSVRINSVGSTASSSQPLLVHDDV
Procedure, shortened: as §1

kinases [7] = biological target: T7, kinases (Homo sapiens, UniProt P36888, D835Y)
T7 construct: purchased Eurofins/DiscoveRx; host or cells: E. coli BL21-derived host (T7 phage display) for most kinases; HEK-293 for the rest
T7 sequence (P36888 27-993 D835Y): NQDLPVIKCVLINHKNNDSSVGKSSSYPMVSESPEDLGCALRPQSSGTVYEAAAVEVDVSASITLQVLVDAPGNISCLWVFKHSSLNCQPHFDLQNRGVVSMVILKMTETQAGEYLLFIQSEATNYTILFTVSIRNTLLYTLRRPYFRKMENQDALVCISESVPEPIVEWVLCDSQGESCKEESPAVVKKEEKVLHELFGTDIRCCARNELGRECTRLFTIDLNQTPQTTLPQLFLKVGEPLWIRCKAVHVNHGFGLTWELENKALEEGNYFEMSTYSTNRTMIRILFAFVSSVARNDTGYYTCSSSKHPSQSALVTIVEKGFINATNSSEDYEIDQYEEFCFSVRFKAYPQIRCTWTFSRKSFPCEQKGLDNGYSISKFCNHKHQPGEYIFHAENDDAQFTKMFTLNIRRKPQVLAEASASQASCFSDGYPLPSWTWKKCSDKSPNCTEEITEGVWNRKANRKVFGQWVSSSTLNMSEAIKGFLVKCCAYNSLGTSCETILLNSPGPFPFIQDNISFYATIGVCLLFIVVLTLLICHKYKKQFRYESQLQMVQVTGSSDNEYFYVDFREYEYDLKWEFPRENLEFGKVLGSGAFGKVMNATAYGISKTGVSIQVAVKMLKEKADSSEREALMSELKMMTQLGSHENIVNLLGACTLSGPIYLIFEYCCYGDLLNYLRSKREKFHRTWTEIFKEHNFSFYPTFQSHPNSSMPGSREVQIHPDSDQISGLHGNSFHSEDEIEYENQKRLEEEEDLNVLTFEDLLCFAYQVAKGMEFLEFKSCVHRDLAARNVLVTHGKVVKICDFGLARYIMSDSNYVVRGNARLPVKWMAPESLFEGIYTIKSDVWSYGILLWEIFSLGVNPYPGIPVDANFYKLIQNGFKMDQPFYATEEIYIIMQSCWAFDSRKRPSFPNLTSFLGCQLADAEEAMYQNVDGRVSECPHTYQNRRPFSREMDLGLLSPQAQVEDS
Procedure, shortened: as §1

[8] = 1 μM; ABL1(F317L)-nonphosphorylated
[9] = 1 μM; ABL1(F317L)-phosphorylated
[10] = target EGFR(E746-A750del); 1 μM
[11] = target EGFR(L858R, T790M); 1 μM
[12] = target ABL1(F317L)-nonphosphorylated; 1 μM
[13] = target ABL1(F317L)-phosphorylated; 1 μM

T1 sequence (P10721 26-976 D816H): as the sequence (P10721 26-976 V559D) above, with D534V, D791H counted along it

| Compound | % Ctrl, KIT(D816H) (kinases [1]; 1 μM; KIT(D816H)) | % Ctrl, EGFR(E746-A750del) (kinases [2]; 1 μM; EGFR(E746-A750del)) | % Ctrl, EGFR(L858R, T790M) (kinases [3]; 1 μM; EGFR(L858R, T790M)) | % Ctrl, FLT1 (kinases [4]; 1 μM; FLT1) | % Ctrl, ABL1(F317L)-nonphosphorylated (kinases [5]; [8]) | % Ctrl, ABL1(F317L)-phosphorylated (kinases [5]; [9]) | % Ctrl, KIT(V559D) (kinases [6]; 1 μM; KIT(V559D)) | % Ctrl, FLT3(D835Y) (kinases [7]; 1 μM; FLT3(D835Y)) | also measured |
| --- | --- | --- | --- | --- | --- | --- | --- | --- | --- |
| Cc1cc2c([nH]1)/C=C1\C(=O)Nc3cnc(cc31)-c1cnn(C)c1COCCNC2=O [Ex.123, [3a(4)Z]-6,14-dimethyl-10,11,13,14-tetrahydro-2H-17,1-(azenometheno)pyrazolo[4,3-m]dipyrrolo[3,2-f:3′,4′-i][1,4]oxazacyclopentadecine-3,8(5H,9H)-dione] | 100 % Ctrl | 100 % Ctrl | 92 % Ctrl | 96 % Ctrl | 100 % Ctrl | 100 % Ctrl | 99 % Ctrl | 72 % Ctrl |  |
| Cc1cc2c([nH]1)/C=C1\C(=O)Nc3cnc(cc31)-c1cn[nH]c1CNCCN(C)C2=O [Ex. 55, [3a(4)Z]-6,9-dimethyl-9,10,11,12,13,14-hexahydro-17,1-(azenometheno)pyrazolo[4,3-m]dipyrrolo[3,2-f:3′,4′-i][1,4]diazacyclopentadecine-3,8(2,5H)-dione] |  |  |  |  |  |  |  |  | % Ctrl, KIT(D816H) (kinases [1]; target KIT(D816H); 1 μM): 18 % Ctrl; % Ctrl, EGFR(E746-A750del) (kinases [2]; [10]): 74 % Ctrl; % Ctrl, EGFR(L858R, T790M) (kinases [3]; [11]): 35 % Ctrl; % Ctrl, FLT1 (kinases [4]; target FLT1; 1 μM): 62 % Ctrl; % Ctrl, ABL1(F317L)-nonphosphorylated (kinases [5]; [12]): 24 % Ctrl; % Ctrl, ABL1(F317L)-phosphorylated (kinases [5]; [13]): 10 % Ctrl; % Ctrl, KIT(V559D) (kinases [6]; target KIT(V559D); 1 μM): 55 % Ctrl; % Ctrl, FLT3(D835Y) (kinases [7]; target FLT3(D835Y); 1 μM): 2 % Ctrl |
| Cc1cc2c([nH]1)/C=C1\C(=O)Nc3ccc(cc31)OCCOCCNC2=O [Ex. 129, [16a(17)Z]-2-methyl-6,7,9,10-tetrahydro-1H-12,14-(ethanediylidene)dipyrrolo[3,2-i:3′,4′-l][1,4,7]dioxazacyclopentadecine-4,16(5H,15H)-dione] | 96 % Ctrl | 100 % Ctrl | 98 % Ctrl | 99 % Ctrl | 93 % Ctrl | 79 % Ctrl | 98 % Ctrl | 9.1 % Ctrl |  |
| Cc1cc2c([nH]1)/C=C1\C(=O)Nc3ccc(cc31)OCCOCCN(C)C2=O [Ex.91, [16a(17)Z]-2,5-dimethyl-6,7,9,10-tetrahydro-1H-12,14-(ethanediylidene)dipyrrolo[3,2-i:3′,4′-l][1,4,7]dioxazacyclopentadecine-4,16(5H,15H)-dione] | 41 % Ctrl | 93 % Ctrl | 58 % Ctrl | 83 % Ctrl | 12 % Ctrl | 20 % Ctrl | 62 % Ctrl | 0.25 % Ctrl |  |
| CNC(=O)[C@H]1CN(C)C(=O)c2cc(C)[nH]c2/C=C2\C(=O)Nc3cc(Cl)c(cc32)OCCO1 [Ex. 135, [7R,16a(17)Z]-19-chloro-N,2,5-trimethyl-4,16-dioxo-4,5,6,7,9,10,15,16-octahydro-1H-12,14-(ethanediylidene)dipyrrolo[3,2-i:3′,4′-l][1,4,7]dioxazacyclopentadecine-7-carboxamide] | 80 % Ctrl | 99 % Ctrl | 93 % Ctrl | 85 % Ctrl | 78 % Ctrl | 64 % Ctrl | 45 % Ctrl | 13 % Ctrl |  |
| CN1CCOc2cc3c(cc2Cl)NC(=O)/C3=C\c2[nH]ccc2C(=O)N(C)CC1 [Ex. 164, [16a(17)Z]-19-chloro-2,5,8-trimethyl-5,6,7,8,9,10-hexahydro-12,14-(ethanediylidene)dipyrrolo[3,2-i:3′,4′-l][1,4,7]oxadiazacyclopentadecine-4,16(1H,15H)-dione] |  |  |  |  |  |  |  |  | % Ctrl, KIT(D816H) (kinases [1]; 1 μM; target KIT(D816H)): 22 % Ctrl; % Ctrl, EGFR(E746-A750del) (kinases [2]; 1 μM; target EGFR(E746-A750del)): 18 % Ctrl; % Ctrl, EGFR(L858R, T790M) (kinases [3]; 1 μM; target EGFR(L858R, T790M)): 80 % Ctrl; % Ctrl, FLT1 (kinases [4]; 1 μM; target FLT1): 13 % Ctrl; % Ctrl, ABL1(F317L)-nonphosphorylated (kinases [5]; 1 μM; target ABL1(F317L)-nonphosphorylated): 1.6 % Ctrl; % Ctrl, ABL1(F317L)-phosphorylated (kinases [5]; 1 μM; target ABL1(F317L)-phosphorylated): 1.3 % Ctrl; % Ctrl, KIT(V559D) (kinases [6]; 1 μM; target KIT(V559D)): 6.9 % Ctrl; % Ctrl, FLT3(D835Y) (kinases [7]; 1 μM; target FLT3(D835Y)): 0.5 % Ctrl |
| Cc1cc2c([nH]1)/C=C1\C(=O)Nc3ccc(cc31)-c1ccnn1CCOCCN(C)C2=O [Ex. 41, [19a(20)Z]-2,5-dimethyl-6,7,9,10-tetrahydro-1H-15,17-(ethanediylidene)pyrazolo[1,5-d]dipyrrolo[3,4-h:2′,3′-k][1,4,14]oxadiazacyclohexadecine-4,19(5H,18H)-dione] | 38 % Ctrl | 36 % Ctrl | 17 % Ctrl | 81 % Ctrl | 26 % Ctrl | 53 % Ctrl | 64 % Ctrl | 8.8 % Ctrl |  |
| Cc1cc2c([nH]1)/C=C1\C(=O)Nc3ccc(cc31)-c1c(noc1C)COCCN(C)C2=O [Ex. 128, [3a(4)Z]-6,9,16-trimethyl-1,11-dihydro-2H,13H-1,17-(ethanediylidene)[1,4]oxazolo[4,3-m]dipyrrolo[3,2-f:3′,4′-i][1,4]oxazacyclopentadecine-3,8(5H,9H)-dione] | 87 % Ctrl | 86 % Ctrl | 48 % Ctrl | 85 % Ctrl | 85 % Ctrl | 58 % Ctrl | 93 % Ctrl | 22 % Ctrl |  |
| Cc1cc2c([nH]1)/C=C1\C(=O)Nc3ccc(cc31)-c1c(noc1C)CNCCN(C)C2=O [Ex. 139, [3a(4)Z]-6,9,16-trimethyl-10,11,12,13-tetrahydro-2H-1,17-(ethanediylidene)[1,2]oxazolo[4,3-m]dipyrrolo[3,2-f:3′,4′-i][1,4]diazacyclopentadecine-3,8(5H,9H)-dione] |  |  |  |  |  |  |  |  | % Ctrl, KIT(D816H) (kinases [1]; target KIT(D816H); 1 μM): 67 % Ctrl; % Ctrl, EGFR(E746-A750del) (kinases [2]; [10]): 72 % Ctrl; % Ctrl, EGFR(L858R, T790M) (kinases [3]; [11]): 17 % Ctrl; % Ctrl, FLT1 (kinases [4]; target FLT1; 1 μM): 65 % Ctrl; % Ctrl, ABL1(F317L)-nonphosphorylated (kinases [5]; [12]): 48 % Ctrl; % Ctrl, ABL1(F317L)-phosphorylated (kinases [5]; [13]): 39 % Ctrl; % Ctrl, KIT(V559D) (kinases [6]; target KIT(V559D); 1 μM): 91 % Ctrl; % Ctrl, FLT3(D835Y) (kinases [7]; target FLT3(D835Y); 1 μM): 2.5 % Ctrl |
